We go through three molecules from ChEMBL document CHEMBL1136242, “Arachidonylsulfonyl derivatives as cannabinoid CB1 receptor and fatty acid amide hydrolase inhibitors” (Bioorg Med Chem Lett, 2003).

Some results are limits rather than exact numbers.

The target in test [1] is T1, Fatty-acid amide hydrolase 1 (Mus musculus, UniProt O08914).
T1 sequence (O08914 whole entry): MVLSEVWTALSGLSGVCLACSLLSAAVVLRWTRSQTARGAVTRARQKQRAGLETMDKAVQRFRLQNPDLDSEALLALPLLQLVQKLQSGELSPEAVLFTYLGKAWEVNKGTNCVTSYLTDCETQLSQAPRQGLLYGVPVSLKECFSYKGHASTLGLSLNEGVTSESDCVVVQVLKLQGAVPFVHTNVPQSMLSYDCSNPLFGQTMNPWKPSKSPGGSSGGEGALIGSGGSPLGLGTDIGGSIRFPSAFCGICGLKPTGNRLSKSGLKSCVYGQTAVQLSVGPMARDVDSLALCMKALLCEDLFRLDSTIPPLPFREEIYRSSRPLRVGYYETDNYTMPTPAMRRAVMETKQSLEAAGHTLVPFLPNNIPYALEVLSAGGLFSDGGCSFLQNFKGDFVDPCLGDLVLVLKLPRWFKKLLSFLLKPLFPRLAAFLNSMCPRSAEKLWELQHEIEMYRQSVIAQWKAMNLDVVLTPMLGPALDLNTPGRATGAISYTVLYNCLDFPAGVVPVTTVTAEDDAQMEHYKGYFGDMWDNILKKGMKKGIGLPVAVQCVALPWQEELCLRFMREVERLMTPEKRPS
Briefly: Inhibitory potency of Fatty-acid amide hydrolase with Mouse brain membrane.

The target in test [2] is Cannabinoid receptor 1 (Mus musculus, UniProt P47746). The test can be described thus: Binding affinity towards Cannabinoid receptor 1 was determined using [3H]-CP- cannabinoid as radioligand with mouse brain membrane in the presence of PMSF.
For test [3], the target named is T1, Fatty-acid amide hydrolase 1. Briefly: Inhibitory potency of Fatty-acid amide hydrolase with Mouse brain membrane in the presence of PMSF.
Test [4] addresses Cannabinoid receptor 1 (Rattus norvegicus, UniProt P20272). Briefly: Binding affinity towards Cannabinoid receptor 1 was determined using [3H]-CP- cannabinoid as radioligand with rat brain membrane.
In test [5] the target is T2, Fatty-acid amide hydrolase 1 (Rattus norvegicus, UniProt P97612).
T2 sequence (P97612 whole entry): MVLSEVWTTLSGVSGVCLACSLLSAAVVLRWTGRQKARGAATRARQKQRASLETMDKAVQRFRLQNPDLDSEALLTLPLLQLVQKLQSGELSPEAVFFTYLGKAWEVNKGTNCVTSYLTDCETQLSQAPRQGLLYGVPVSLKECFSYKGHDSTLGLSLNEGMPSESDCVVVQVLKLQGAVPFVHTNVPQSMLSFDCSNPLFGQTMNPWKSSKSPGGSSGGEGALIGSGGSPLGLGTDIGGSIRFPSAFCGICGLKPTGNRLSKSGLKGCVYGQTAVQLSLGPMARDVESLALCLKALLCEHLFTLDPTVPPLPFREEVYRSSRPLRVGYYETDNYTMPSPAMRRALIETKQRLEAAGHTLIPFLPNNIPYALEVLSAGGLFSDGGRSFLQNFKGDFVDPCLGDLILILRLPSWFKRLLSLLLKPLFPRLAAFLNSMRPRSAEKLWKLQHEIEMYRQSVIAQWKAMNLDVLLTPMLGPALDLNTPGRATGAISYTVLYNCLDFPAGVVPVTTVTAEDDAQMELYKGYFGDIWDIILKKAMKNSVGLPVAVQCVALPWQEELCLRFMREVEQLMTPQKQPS
Briefly: Inhibitory potency of Fatty-acid amide hydrolase with rat brain membrane.

Cannabinoid receptor 1 (Rattus norvegicus, UniProt P20272), sequence (P20272 whole entry): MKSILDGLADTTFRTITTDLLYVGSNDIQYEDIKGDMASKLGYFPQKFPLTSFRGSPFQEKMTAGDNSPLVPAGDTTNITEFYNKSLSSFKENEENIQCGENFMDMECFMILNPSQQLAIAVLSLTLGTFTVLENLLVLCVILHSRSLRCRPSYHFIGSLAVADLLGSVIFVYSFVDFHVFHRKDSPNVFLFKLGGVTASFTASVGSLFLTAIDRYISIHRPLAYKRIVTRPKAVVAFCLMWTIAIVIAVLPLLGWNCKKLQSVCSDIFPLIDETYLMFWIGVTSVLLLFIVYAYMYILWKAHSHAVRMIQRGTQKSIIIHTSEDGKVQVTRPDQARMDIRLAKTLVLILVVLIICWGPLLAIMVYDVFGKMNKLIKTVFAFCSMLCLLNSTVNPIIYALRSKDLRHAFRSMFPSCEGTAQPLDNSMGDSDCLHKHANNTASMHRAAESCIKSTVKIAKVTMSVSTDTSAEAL
Cannabinoid receptor 1 (Mus musculus, UniProt P47746), sequence (P47746 whole entry): as the sequence (P20272 whole entry) above, with E95D counted along it

Regarding `CCCCC/C=C\C/C=C\C/C=C\C/C=C\CCCCS(=O)(=O)F`, in test [1], half-maximal inhibition (IC50) required 0.11 nM.
On to `CCCCC/C=C\C/C=C\C/C=C\C/C=C\CCCCS(=O)(=O)NCCO`, for which the IC50 in test [2] is above 100000 nM; in test [3] it was around 10000 nM.
As to `CCCCCCCCCCCCS(=O)(=O)F` [DODECANESULFONYL FLUORIDE], the IC50 in test [4] stood at 18 nM; in test [5], 3 nM; in test [1], 2 nM.
